In ChEMBL document CHEMBL4428131, “Scaffold-hopping from xanthines to tricyclic guanines: A case study of dipeptidyl peptidase 4 (DPP4) inhibitors” (Bioorg Med Chem, 2016):

molecular target: Dipeptidyl peptidase 4 (Homo sapiens, UniProt P27487); assay: Inhibition of DPP4 (unknown origin) using Gly-Pro-AMC as substrate preincubated for 30 mins followed by substrate addition measured after 50 mins by fluorescence assay
Sequence (P27487 whole entry): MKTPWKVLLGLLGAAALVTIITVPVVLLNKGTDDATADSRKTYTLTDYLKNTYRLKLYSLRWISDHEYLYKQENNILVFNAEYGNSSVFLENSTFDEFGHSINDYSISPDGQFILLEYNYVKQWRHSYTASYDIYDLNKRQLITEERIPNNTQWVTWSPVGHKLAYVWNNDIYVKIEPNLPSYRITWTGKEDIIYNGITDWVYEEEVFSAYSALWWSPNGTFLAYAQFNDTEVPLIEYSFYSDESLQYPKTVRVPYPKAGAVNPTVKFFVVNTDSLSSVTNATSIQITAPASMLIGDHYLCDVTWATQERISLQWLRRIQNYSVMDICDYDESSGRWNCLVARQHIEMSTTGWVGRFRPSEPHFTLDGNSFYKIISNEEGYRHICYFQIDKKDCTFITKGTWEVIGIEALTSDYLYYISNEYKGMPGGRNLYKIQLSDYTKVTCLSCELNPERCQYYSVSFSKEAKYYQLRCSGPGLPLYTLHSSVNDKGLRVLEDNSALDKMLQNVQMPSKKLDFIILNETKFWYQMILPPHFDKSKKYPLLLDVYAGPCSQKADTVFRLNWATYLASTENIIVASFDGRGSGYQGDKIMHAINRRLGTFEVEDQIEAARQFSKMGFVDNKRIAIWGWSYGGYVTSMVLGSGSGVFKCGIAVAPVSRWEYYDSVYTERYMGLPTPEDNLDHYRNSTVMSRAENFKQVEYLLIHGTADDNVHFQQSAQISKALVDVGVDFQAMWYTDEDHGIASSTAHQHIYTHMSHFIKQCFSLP

Compound	IC50
CC#CCn1c(N2CCC[C@@H](N)C2)nc2c1c(=O)nc1n2CCCN1CCCc1ccccc1	> 10 µM
CC#CCn1c(N2CCC[C@@H](N)C2)nc2c1C(=O)N(CCCc1ccccc1)C1=NCCCN12	> 10 µM

molecular target: T1, Prolyl endopeptidase FAP (Homo sapiens, UniProt Q12884); assay: Inhibition of FAP (unknown origin) using Nle-Pro-AMC as substrate preincubated for 20 mins followed by substrate addition measured after 40 mins by fluorescence assay
T1 sequence (Q12884 whole entry): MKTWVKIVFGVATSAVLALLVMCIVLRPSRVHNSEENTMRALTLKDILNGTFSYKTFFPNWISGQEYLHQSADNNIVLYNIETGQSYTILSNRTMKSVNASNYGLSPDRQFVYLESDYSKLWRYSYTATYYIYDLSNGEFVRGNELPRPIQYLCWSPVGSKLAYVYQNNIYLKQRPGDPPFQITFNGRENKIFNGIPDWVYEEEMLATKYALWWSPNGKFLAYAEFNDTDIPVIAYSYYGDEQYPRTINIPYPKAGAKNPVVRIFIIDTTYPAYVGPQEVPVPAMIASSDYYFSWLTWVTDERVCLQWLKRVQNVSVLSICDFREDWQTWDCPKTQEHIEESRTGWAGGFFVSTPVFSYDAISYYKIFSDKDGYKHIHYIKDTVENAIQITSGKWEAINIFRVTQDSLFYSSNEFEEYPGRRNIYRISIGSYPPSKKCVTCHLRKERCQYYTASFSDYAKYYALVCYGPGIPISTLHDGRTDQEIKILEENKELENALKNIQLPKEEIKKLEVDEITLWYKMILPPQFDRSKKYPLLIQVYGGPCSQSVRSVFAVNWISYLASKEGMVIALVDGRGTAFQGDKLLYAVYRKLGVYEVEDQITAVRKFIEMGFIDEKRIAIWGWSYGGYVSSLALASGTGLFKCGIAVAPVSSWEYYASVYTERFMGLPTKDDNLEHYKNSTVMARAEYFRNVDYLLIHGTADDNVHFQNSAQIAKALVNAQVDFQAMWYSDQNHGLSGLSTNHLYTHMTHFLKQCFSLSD

Compound	IC50
CC#CCn1c(N2CCC[C@@H](N)C2)nc2c1C(=O)N(Cc1nc(C)c3ccccc3n1)C1=NCCN12	0.367 µM
Cc1nc(CN2C(=O)c3c(nc(N4CCC[C@@H](N)C4)n3Cc3cc(F)ccc3F)N3CCN=C23)nc2ccccc12	9.92 µM
CC#CCn1c(N2CCC[C@@H](N)C2)nc2c1C(=O)N(Cc1nc(C)c3ccccc3n1)C1=NCCCN12	0.268 µM
CC(C)=CCn1c(N2CCC[C@@H](N)C2)nc2c1C(=O)N(Cc1nc(C)c3ccccc3n1)C1=NCCN12	0.755 µM
Cc1nc(CN2C(=O)c3c(nc(N4CCC[C@@H](N)C4)n3Cc3cccc(F)c3)N3CCN=C23)nc2ccccc12	4.62 µM
Cc1nc(CN2C(=O)c3c(nc(N4CCC[C@@H](N)C4)n3Cc3ccccc3)N3CCN=C23)nc2ccccc12	4.64 µM
Cc1nc(CN2C(=O)c3c(nc(N4CCC[C@@H](N)C4)n3CC3CC3)N3CCN=C23)nc2ccccc12	3.12 µM
CC#CCn1c(N2CCC[C@@H](N)C2)nc2c1C(=O)N(Cc1ccc(OC)cc1)C1=NCCCN12	> 50 µM
CC#CCn1c(N2CCC[C@@H](N)C2)nc2c1C(=O)N(Cc1cccc3ccccc13)C1=NCCCN12	22.4 µM
CC#CCn1c(N2CCC[C@@H](N)C2)nc2c1C(=O)N(Cc1ccccc1C#N)C1=NCCN12	> 100 µM
Cc1nc(CN2C(=O)c3c(nc(N4CCC[C@@H](N)C4)n3CC3CC3(F)F)N3CCN=C23)nc2ccccc12 (stereo partly drawn)	14.7 µM
Cc1nc(CN2C(=O)c3c(nc(N4CCC[C@@H](N)C4)n3CC3CCC3)N3CCN=C23)nc2ccccc12	3.05 µM
Cc1nc(CN2C(=O)c3c(nc(N4CCC[C@@H](N)C4)n3Cc3ccccc3C#N)N3CCN=C23)nc2ccccc12	15.3 µM
Cc1nc(CN2C(=O)c3c(nc(N4CCC[C@@H](N)C4)n3CC(=O)C3CC3)N3CCN=C23)nc2ccccc12	0.107 µM
CC#CCn1c(N2CCC[C@@H](N)C2)nc2c1C(=O)N(Cc1cccc(C#N)c1)C1=NCCN12	78.5 µM
CC#CCn1c(N2CCC[C@@H](N)C2)nc2c1C(=O)N(Cc1ccc(C#N)cc1)C1=NCCN12	88.3 µM
